From US8449898B2 (priority 2007, dated 2013) come the findings set out here.

The subject of data set [1] is Pseudoperonospora cubensis (the causal agent of cucumber downy mildew). As to the kind of experiment: Test B: cucumber downy mildew, preventive spray on cucumber seedlings. The class given is in vivo. The conditions noted are these: for CDM Obsd (disease control rating): Table B.
Data set [2] relates to Phytophthora infestans (the causal agent of tomato late blight). In words: whole plant or invertebrate. The class given is in vivo. The conditions noted are these: for TLB Obsd: component (b) alone; for TLB Obsd (disease control rating): Table B.
The mark [3] stands for this setting: Pseudoperonospora cubensis, component (b) alone, 2 ppm, read-out: CDM Obsd.
Setting [4] is: Pseudoperonospora cubensis, component (b) alone, 10 ppm, read-out: CDM Obsd.
The mark [5] stands for this setting: Pseudoperonospora cubensis, component (b) alone, 40 ppm, read-out: CDM Obsd.
Where [6] appears, read: Pseudoperonospora cubensis, component (b) alone, 200 ppm, read-out: CDM Obsd.
Where [7] appears, read: Phytophthora infestans, read-out: TLB Obsd, component (b) alone, 2 ppm.
Where [8] appears, read: Phytophthora infestans, read-out: TLB Obsd, component (b) alone, 10 ppm.
Where [9] appears, read: Phytophthora infestans, read-out: TLB Obsd, component (b) alone, 40 ppm.
[10] abbreviates: Phytophthora infestans, read-out: TLB Obsd, component (b) alone, 200 ppm.
[11] abbreviates: component (b) alone 0.08 ppm (Compound 1 0 ppm).
The mark [12] stands for this setting: component (b) alone 0.4 ppm (Compound 1 0 ppm).
Where [13] appears, read: component (b) alone 2 ppm (Compound 1 0 ppm).
[14] abbreviates: component (b) alone 10 ppm (Compound 1 0 ppm).

Where two headings read alike, the source gives them in different places.

The melting point is the temperature, or range, at which the solid turns liquid. The molecule `Cc1cc(C(F)(F)F)nn1CC(=O)N1CCC(c2nc(C3=NOC(C)(c4ccccc4)C3)cs2)CC1` (stereo not drawn) gave a melting point of 97 to 100 °C.
Same read-out and setting: the result for `Cc1cc(C(F)(F)F)nn1CC(=O)N1CCC(c2nc(C3=NOC4c5ccccc5CCC34)cs2)CC1` (stereo not drawn) reads 162 to 165 °C.
The same measure, in the same setting: as for `COc1ccc(C2CC(c3csc(C4CCN(C(=O)Cn5nc(C(F)(F)F)cc5C)CC4)n3)=NO2)cc1` (stereo not drawn), the figure is 119 to 124 °C; as for `CCc1cc(C(F)(F)F)nn1CC(=O)N1CCC(c2nc(C3=NOC(c4ccccc4)C3)cs2)CC1` (stereo not drawn), 128 to 133 °C; as for `O=C(Cn1nc(C(F)(F)F)cc1C(F)(F)F)N1CCC(c2nc(C3=NOC(c4ccccc4)C3)cs2)CC1` (stereo not drawn), 130 to 133 °C.
Take `Fc1ccc(Oc2ccnc3cc(Cl)cc(Cl)c23)cc1` [quinoxyfen]: the pest or weed control at 0.016 ppm in data set [1] (Pseudoperonospora cubensis, Table F, component (b) alone at 0.016 ppm, read-out: CDM Obsd) came to 26%; in data set [2] (Phytophthora infestans, read-out: TLB Obsd, Table E, component (b) alone at 0.016 ppm), 9%. Moreover, the pest or weed control at 0.08 ppm in data set [1] (Pseudoperonospora cubensis, Table F, component (b) alone at 0.08 ppm, read-out: CDM Obsd) was found to be 26%; in data set [2] (Phytophthora infestans, read-out: TLB Obsd, Table E, component (b) alone at 0.08 ppm), 24%. Further, the pest or weed control at 0.4 ppm in data set [1] (Pseudoperonospora cubensis, Table F, component (b) alone at 0.4 ppm, read-out: CDM Obsd) is 26%; in data set [1] (Pseudoperonospora cubensis, component (b) alone, 0.4 ppm, read-out: CDM Obsd), 0%; in data set [2] (Phytophthora infestans, read-out: TLB Obsd, Table E, component (b) alone at 0.4 ppm) it was 26%; in data set [2] (Phytophthora infestans, read-out: TLB Obsd, component (b) alone, 0.4 ppm), 0%. Also, the pest or weed control at 2 ppm in data set [1] (Pseudoperonospora cubensis, Table F, component (b) alone at 2 ppm, read-out: CDM Obsd) came to 26%; in data set [1] (setting [3]), 0%; in data set [2] (Phytophthora infestans, read-out: TLB Obsd, Table E, component (b) alone at 2 ppm) it was 9%; in data set [2] (setting [7]), 7%. Further, the pest or weed control at 10 ppm in data set [1] (Pseudoperonospora cubensis, Table F, component (b) alone at 10 ppm, read-out: CDM Obsd) stood at 26%; in data set [1] (setting [4]), 0%; in data set [2] (Phytophthora infestans, read-out: TLB Obsd, Table E, component (b) alone at 10 ppm) it was 9%; in data set [2] (setting [8]) it was 7%. The pest or weed control at 40 ppm in data set [1] (setting [5]) and in data set [2] (setting [9]) was 0% in each case. The pest or weed control at 200 ppm in data set [1] (setting [6]) and in data set [2] (setting [10]) was 0% throughout.
`CON=C(C(=O)OC)c1ccccc1CON=C(C)c1cccc(C(F)(F)F)c1` [trifloxystrobin]: the pest or weed control at 0.4 ppm in data set [1] (Pseudoperonospora cubensis, Table C, component (b) alone 0.4 ppm, read-out: CDM Obsd (disease control rating)) was 47%; in data set [2] (Phytophthora infestans, read-out: TLB Obsd (disease control rating), Table C, component (b) alone 0.4 ppm), 0%. For the same molecule, the pest or weed control at 2 ppm in data set [1] (Pseudoperonospora cubensis, Table C, component (b) alone 2 ppm, read-out: CDM Obsd (disease control rating)) worked out at 47%; in data set [1] (setting [3]), 0%; in data set [2] (Phytophthora infestans, read-out: TLB Obsd (disease control rating), Table C, component (b) alone 2 ppm) it was 40%; in data set [2] (setting [7]), 0%. In addition, the pest or weed control at 10 ppm in data set [1] (Pseudoperonospora cubensis, Table C, component (b) alone 10 ppm, read-out: CDM Obsd (disease control rating)) was 58%; in data set [1] (setting [4]) it was 16%; in data set [2] (Phytophthora infestans, read-out: TLB Obsd (disease control rating), Table C, component (b) alone 10 ppm) it was 26%; in data set [2] (setting [8]), 72%. The pest or weed control at 40 ppm in data set [1] (Pseudoperonospora cubensis, Table C, component (b) alone 40 ppm, read-out: CDM Obsd (disease control rating)) amounted to 94%; in data set [1] (setting [5]) it was 89%; in data set [2] (Phytophthora infestans, read-out: TLB Obsd (disease control rating), Table C, component (b) alone 40 ppm) it was 45%; in data set [2] (setting [9]), 38%. The pest or weed control at 200 ppm is 100% in data set [1] (Pseudoperonospora cubensis, Table C, component (b) alone 200 ppm, read-out: CDM Obsd (disease control rating)); 100% in data set [1] (setting [6]); 53% in data set [2] (Phytophthora infestans, read-out: TLB Obsd (disease control rating), Table C, component (b) alone 200 ppm); 25% in data set [2] (setting [10]). Also, the pest or weed control at 0.4 µg/mL in data set [1] (Pseudoperonospora cubensis, component (b) alone 0.4 ppm (Compound 1 0 ppm), read-out: CDM Obsd) was determined as 47%. For the same molecule, the pest or weed control at 2 µg/mL in data set [1] (Pseudoperonospora cubensis, component (b) alone 2 ppm (Compound 1 0 ppm), read-out: CDM Obsd) came to 47%. Further, the pest or weed control at 10 µg/mL in data set [1] (Pseudoperonospora cubensis, component (b) alone 10 ppm (Compound 1 0 ppm), read-out: CDM Obsd) worked out at 57%. In addition, the pest or weed control at 40 µg/mL in data set [1] (Pseudoperonospora cubensis, component (b) alone 40 ppm (Compound 1 0 ppm), read-out: CDM Obsd) stood at 93%. Further, the pest or weed control at 200 µg/mL in data set [1] (Pseudoperonospora cubensis, component (b) alone 200 ppm (Compound 1 0 ppm), read-out: CDM Obsd) was found to be 100%. In addition, the pest or weed control at 0.04 ppm turned out to be 0% in data set [1] (Pseudoperonospora cubensis, component (b) alone, 0.04 ppm, read-out: CDM Obsd) and 0% in data set [2] (Phytophthora infestans, read-out: TLB Obsd, component (b) alone, 0.04 ppm).
For `COC(=O)CC(NC(=O)[C@@H](NC(=O)OC(C)C)C(C)C)c1ccc(Cl)cc1` (stereo partly drawn) [valiphenal], the “CDM Obsd” value is recorded as 65% in data set [1] (component (b) alone 0.016 ppm (Compound 1 0 ppm)); 47% in data set [1] (setting [11]); 47% in data set [1] (setting [12]); 47% in data set [1] (setting [13]); 57% in data set [1] (setting [14]); 31% in data set [1] (component (b) alone, 0.016 ppm). For the same molecule, the “CDM Obsd” value in data set [1] (component (b) alone, 0.08 ppm) is given as 16%; in data set [1] (component (b) alone, 0.4 ppm) it was 16%; in data set [1] (component (b) alone, 2 ppm) it was 53%; in data set [1] (component (b) alone, 10 ppm), 100%. In addition, the “TLB Obsd” value in data set [2] (0.016 ppm) is recorded as 8%; in data set [2] (0.08 ppm), 8%; in data set [2] (0.4 ppm) it was 8%; in data set [2] (2 ppm), 32%; in data set [2] (10 ppm), 99%.
As to benthiovalicarb, the “CDM Obsd (disease control rating)” value in data set [1] (component (b) alone 0.4 ppm) was 90%; in data set [1] (component (b) alone 2 ppm), 100%; in data set [1] (component (b) alone 10 ppm) it was 100%; in data set [1] (component (b) alone 40 ppm), 100%. The “CDM Obsd” value is given as 33% in data set [1] (setting [11]); 86% in data set [1] (setting [12]); 100% in data set [1] (setting [13]); 100% in data set [1] (setting [14]); 100% in data set [1] (component (b) alone 40 ppm (Compound 1 0 ppm)). Further, the “TLB Obsd (disease control rating)” value worked out at 53% in data set [2] (component (b) alone 0.4 ppm), 100% in data set [2] (component (b) alone 2 ppm), 100% in data set [2] (component (b) alone 10 ppm) and 100% in data set [2] (component (b) alone 40 ppm).
